Data on 13 molecules can be found in patent US20260183302A1, “PDK1 REGULATORY COMPOUND AND COMPOSITION CONTAINING THE SAME” (PROVIBIO CO., LTD., priority 2024, published 2026).

Series [1] relates to T cells isolated from mouse spleens. As to the kind of experiment: T cell proliferation inhibition (CFSE flow cytometry, anti-CD3/anti-CD28 stimulation). Format: cell-based, C57BL/6 mice. The conditions noted are these: three days. Here is the method: To verify the T cell proliferation inhibitory effect of the compounds according to the present invention, the following experiment was performed based on flow cytometry analysis using carboxyfluorescein diacetate succinimidyl ester (CFSE), a fluorescent dye that binds to intracellular molecules via covalent bonds.
Spleens were extracted from 7-week-old C57BL/6 mice, ground, and then separated into single cells using a strainer (40 μm pore size, SPL). Red blood cells were removed using ACK (Ammonium-Chloride-Potassium) lysis buffer to isolate white blood cells.
Finally, using a MACS Magnetic Stand and LS column, T cells were isolated from the spleen.
The T cells isolated from the spleen were resuspended in 1 mL of free medium (RPMI-1640+200 U/mL penicillin+200 μg/mL streptomycin), and 0.3 μL of CFSE (10 mM) was added. The mixture was incubated at 37° C. for 5 minutes.
Free medium (10 mL) was added to stop the reaction, and the cells were centrifuged to obtain the cell pellet.
RPMI 1640 medium containing 10% FBS, 100 U/mL penicillin, 100 μg/mL streptomycin, and resuspended the cells. The cells were then seeded into a 96-well plate at a density of 2× 10^5 cells per well and activated with CD3 and CD28 antibodies (0.5 μg/mL each) to activate T cells.
The compound diluted in DMSO was added at concentrations of 10 nM, 100 nM, 1 μM, 10 μM, 30 μM, and 50 μM, with three wells per concentration, and cultured at 37° C. and 5% CO2 for three days. The cells were then analyzed using a FACS Canto instrument.
The proliferation inhibition rate (%) was calculated using the following formula: […]

For series [2], the system named is Human B Lymphocyte cell line, SU-DHL-8. In words: Relative cell viability, SU-DHL-8 (CCK-8). Format: cell-based. The conditions noted are these: 48 hours, untreated (DMSO) = 100%. Here is the method:
Human-derived B lymphoma cell line SU-DHL-8 (Cat. #CRL-2961) purchased from ATCC was cultured in RPMI-1640 medium containing 10% FBS, 100 U/mL penicillin, and 100 μg/mL streptomycin.
The cell culture medium was then harvested, centrifuged at 1,300 rpm for 5 minutes, and the supernatant was removed. The cells were resuspended in the same medium and dispensed into a 96-well plate (Costar 96-well cell culture plate, Corning) at 90 μL per well, resulting in the conditions specified in Table 5.
Then, 10 μL of CCK-8 was added to each well, and the plates were incubated again at 37° C. in a 5% CO2 incubator for 4 hours.
In other words, when the survival rate of untreated cells (DMSO) is set at 100%, the relative cell survival rate in each group treated with the drug at different concentrations is indicated.

With `CC1CN(CCCCCCCCCCCCNC(=O)c2cccnc2N)CC(C)O1` (stereo not shown) [Compound 21, 2-Amino-N-(12-(2,6-dimethylmorpholino)dodecyl) nicotinamide], the “Proliferation inhibition rate (%)” value in series [1] (concentration 100 nM), in series [1] (concentration 1 μM), in series [1] (concentration 10 μM), in series [1] (concentration 30 μM) and in series [1] (concentration 50 μM) was 100.00% in each case. The “Relative cell viability (%)” value in series [2] (SU-DHL-8, 1 μM) amounted to 9.64%; in series [2] (SU-DHL-8, 10 μM), 7.68%; in series [2] (SU-DHL-8, 30 μM), 3.70%.

On to `CC1(C)CCN(CCCCCCCCCCCCNC(=O)c2cccnc2N)C1` [Compound 22, 2-Amino-N-(12-(3,3-dimethylpyrrolidin-1-yl)dodecyl) nicotinamide], for which the “Proliferation inhibition rate (%)” value is reported as −0.80% in series [1] (concentration 10 nM); 100.00% in series [1] (concentration 100 nM); 100.00% in series [1] (concentration 1 μM); 100.00% in series [1] (concentration 10 μM); 100.00% in series [1] (concentration 30 μM); 100.00% in series [1] (concentration 50 μM). The “Relative cell viability (%)” value in series [2] (SU-DHL-8, 1 μM) is 6.46%; in series [2] (SU-DHL-8, 10 μM), 2.85%; in series [2] (SU-DHL-8, 30 μM), 2.45%; in series [2] (SU-DHL-8, 50 μM), 1.67%.

For `CC1CCN(CCCCCCCCCCCCNC(=O)c2cccnc2N)C1` (stereo not shown) [Compound 24, 2-Amino-N-(12-(3-methylpyrrolidin-1-yl)dodecyl) nicotinamide], the “Proliferation inhibition rate (%)” value in series [1] (concentration 100 nM), in series [1] (concentration 1 μM), in series [1] (concentration 10 μM), in series [1] (concentration 30 μM) and in series [1] (concentration 50 μM) was 100.00% in each case. In addition, the “Relative cell viability (%)” value was found to be 8.38% in series [2] (SU-DHL-8, 1 μM); 1.65% in series [2] (SU-DHL-8, 10 μM); 0.62% in series [2] (SU-DHL-8, 30 μM).

For the molecule `Nc1ncccc1C(=O)NCCCCCCCCCCCCN1CCS(=O)(=O)CC1` [Compound 25, 2-Amino-N-(12-(1,1-dioxidothiomorpholino)dodecyl) nicotinamide], the “Proliferation inhibition rate (%)” value in series [1] (concentration 1 μM), in series [1] (concentration 10 μM), in series [1] (concentration 30 μM) and in series [1] (concentration 50 μM) was 100.00% throughout. Also, the “Relative cell viability (%)” value in series [2] (SU-DHL-8, 1 μM) was determined as 9.73%; in series [2] (SU-DHL-8, 10 μM), 1.26%; in series [2] (SU-DHL-8, 30 μM) it was 0.11%; in series [2] (SU-DHL-8, 50 μM), 0.95%.

For `Nc1ncccc1C(=O)NCCCCCCCCCCCCN1CCC(F)C1` (stereo not shown) [Compound 26, 2-Amino-N-(12-(3-fluoropyrrolidin-1-yl)dodecyl) nicotinamide], the “Proliferation inhibition rate (%)” value in series [1] (concentration 100 nM), in series [1] (concentration 1 μM), in series [1] (concentration 10 μM), in series [1] (concentration 30 μM) and in series [1] (concentration 50 μM) was 100.00% each time. The “Relative cell viability (%)” value in series [2] (SU-DHL-8, 1 μM) was determined as 1.70%; in series [2] (SU-DHL-8, 10 μM) it was 1.04%; in series [2] (SU-DHL-8, 30 μM) it was 0.05%.

`COC1CCN(CCCCCCCCCCCCNC(=O)c2cccnc2N)C1` (stereo not shown) [Compound 32, 2-Amino-N-(12-(3-methoxypyrrolidin-1-yl)dodecyl) nicotinamide]: the “Proliferation inhibition rate (%)” value in series [1] (concentration 10 nM, listed as PBK-2024-024, 0.01 µM) turned out to be 0.29%. Besides, the “Relative cell viability (%)” value turned out to be 3.48% in series [2] (SU-DHL-8, 1 μM, listed as PBK-2024-024, 1 µM); 3.01% in series [2] (SU-DHL-8, 10 μM, listed as PBK-2024-024, 10 µM); 1.97% in series [2] (SU-DHL-8, 30 μM, listed as PBK-2024-024, 30 µM); 1.45% in series [2] (SU-DHL-8, 50 μM, listed as PBK-2024-024, 50 µM).

Consider `CC1CNCCN1CCCCCCCCCCCCNC(=O)c1cccnc1N` (stereo not shown) [Compound 35, 2-Amino-N-(12-(2-methylpiperazin-1-yl)dodecyl) nicotinamide], for which the “Proliferation inhibition rate (%)” value in series [1] (concentration 100 nM), in series [1] (concentration 1 μM), in series [1] (concentration 10 μM), in series [1] (concentration 30 μM) and in series [1] (concentration 50 μM) was 100.00% each time. For the same molecule, the “Relative cell viability (%)” value in series [2] (SU-DHL-8, 1 μM) was determined as 1.18%; in series [2] (SU-DHL-8, 10 μM), 0.64%; in series [2] (SU-DHL-8, 30 μM), 0.42%.

Turning to `CN1CCN(CCCCCCCCCCCCNC(=O)c2ccncc2Cl)CC1` [Compound 199, 3-Chloro-N-(12-(4-methylpiperazin-1-yl)dodecyl) isonicotinamide], the “Proliferation inhibition rate (%)” value in series [1] (concentration 10 nM) worked out at 0.00%; in series [1] (concentration 100 nM), 0.00%; in series [1] (concentration 1 μM) it was 0.00%; in series [1] (concentration 10 μM), 40.00%; in series [1] (concentration 30 μM) it was 100.00%; in series [1] (concentration 50 μM), 100.00%.

For the molecule `CN1CCN(CCCCCCCCCCCCNC(=O)c2c(Cl)cncc2Cl)CC1` [Compound 201, 3,5-Dichloro-N-(12-(4-methylpiperazin-1-yl)dodecyl) isonicotinamide], the “Proliferation inhibition rate (%)” value is given as 7.24% in series [1] (concentration 10 nM); 6.66% in series [1] (concentration 100 nM); 8.54% in series [1] (concentration 1 μM); 78.44% in series [1] (concentration 10 μM); 100.00% in series [1] (concentration 30 μM); 100.00% in series [1] (concentration 50 μM).

`Cc1ccc(C(=O)NCCCCCCCCCCCCN2CCN(C)CC2)nc1` [Compound 202, 5-Methyl-N-(12-(4-methylpiperazin-1-yl)dodecyl) picolinamide]: the “Proliferation inhibition rate (%)” value stood at 4.05% in series [1] (concentration 10 nM); 13.17% in series [1] (concentration 100 nM); 18.96% in series [1] (concentration 1 μM); 100.00% in series [1] (concentration 10 μM); 100.00% in series [1] (concentration 30 μM); 100.00% in series [1] (concentration 50 μM).

As for `CN1CCN(CCCCCCCCCCCCNC(=O)c2ccc(F)cn2)CC1` [Compound 203, 5-Fluoro-N-(12-(4-methylpiperazin-1-yl)dodecyl) picolinamide], the “Proliferation inhibition rate (%)” value is given as −4.49% in series [1] (concentration 10 nM); 1.16% in series [1] (concentration 100 nM); 6.80% in series [1] (concentration 1 μM); 100.00% in series [1] (concentration 10 μM); 100.00% in series [1] (concentration 30 μM); 100.00% in series [1] (concentration 50 μM).

`COc1ccc(C(=O)NCCCCCCCCCCCCN2CCN(C)CC2)nc1` [Compound 204, 5-methoxy-N-(12-(4-methylpiperazin-1-yl)dodecyl) picolinamide]: the “Proliferation inhibition rate (%)” value is given as −2.60% in series [1] (concentration 10 nM); −0.14% in series [1] (concentration 100 nM); 12.30% in series [1] (concentration 1 μM); 95.01% in series [1] (concentration 10 μM); 100.00% in series [1] (concentration 30 μM); 100.00% in series [1] (concentration 50 μM).

Consider `CN1CCN(CCCCCCCCCCCCNC(=O)c2ccncc2N)CC1` [Compound 209, 3-Amino-N-(12-(4-methylpiperazin-1-yl)dodecyl) isonicotinamide], for which the “Proliferation inhibition rate (%)” value is listed as −1.45% in series [1] (concentration 10 nM); 1.59% in series [1] (concentration 100 nM); 18.81% in series [1] (concentration 1 μM); 84.52% in series [1] (concentration 10 μM); 100.00% in series [1] (concentration 30 μM); 100.00% in series [1] (concentration 50 μM).
